Measurements taken from US9951032B2, “Antibacterial compounds” (Janssen Sciences Ireland UC, priority 2012, dated 2018).
≈ marks a conversion by molar mass, not a printed value. Where two headings read alike, the source gives them in different places.

Experiments:
[1] = tested on: Mycobacterium tuberculosis (strain H37RV); assay: MIC90 determination for testing compounds against M. tuberculosis; assay type: cell-based
[2] = tested on: Mycobacterium tuberculosis (strain H37RV); assay: Time kill assay (kill kinetics), broth dilution method; assay type: cell-based

SMILES: O=C(Nc1nc2cc(Cl)ccc2o1)NC12CC3CC(CC(C3)C1)C2
- melting point: > 250 °C

SMILES: O=C(Nc1nc2c(F)cc(F)cc2s1)NC12CC3CC(CC(C3)C1)C2 [Compound 1]
- MIC90 ([1]; Mycobacterium tuberculosis, H37RV, LV12076, 10% human serum): 1 µg/mL (≈ 2.75 µM)
- MIC90 ([1]; Mycobacterium tuberculosis, H37RV, LV12086, 20% human serum): 1 µg/mL (≈ 2.75 µM)
- MIC90 ([1]; Mycobacterium tuberculosis, H37RV, LV12086, no human serum): 0.25 µg/mL (≈ 0.688 µM)
- MIC90 ([1]; Mycobacterium tuberculosis, H37RV, LV12076, no human serum): 0.5 µg/mL (≈ 1.38 µM)
- log CFU/ml ([2]; 0.5 μg/ml, day 0): 6.35 log CFU/ml
- log CFU/ml ([2]; 0.5 μg/ml, day 1): 5.57 log CFU/ml
- log CFU/ml ([2]; 0.5 μg/ml, day 4): 2.00 log CFU/ml
- log CFU/ml ([2]; 0.5 μg/ml, day 7): 2.00 log CFU/ml
- log CFU/ml ([2]; 0.5 μg/ml, day 14): 2.00 log CFU/ml
- log CFU/ml ([2]; 0.5 μg/ml, day 21): 2.00 log CFU/ml
- log CFU/ml ([2]; 5 μg/ml, day 0): 6.35 log CFU/ml
- log CFU/ml ([2]; 5 μg/ml, day 1): 6.15 log CFU/ml
- log CFU/ml ([2]; 5 μg/ml, day 4): 3.08 log CFU/ml
- log CFU/ml ([2]; 5 μg/ml, day 7): 2.00 log CFU/ml
- log CFU/ml ([2]; 5 μg/ml, day 14): 2.00 log CFU/ml
- log CFU/ml ([2]; 5 μg/ml, day 21): 2.00 log CFU/ml
- melting point: > 260 °C

SMILES: NNC(=O)c1ccncc1 [Isoniazid, reference compound]
- MIC90 ([1]; LV12076, 10% human serum): 0.03 µg/mL (≈ 0.219 µM)
- MIC90 ([1]; LV12086, 20% human serum): 0.03 µg/mL (≈ 0.219 µM)
- MIC90 ([1]; LV12086, no human serum): 0.03 µg/mL (≈ 0.219 µM)
- MIC90 ([1]; Mycobacterium tuberculosis, H37RV, LV12076, no human serum, read-out: MIC90): 0.03 µg/mL (≈ 0.219 µM)
- log CFU/ml ([2]; 1 μg/ml, day 0): 6.35 log CFU/ml
- log CFU/ml ([2]; 1 μg/ml, day 1): 3.57 log CFU/ml
- log CFU/ml ([2]; 1 μg/ml, day 4): 2.00 log CFU/ml
- log CFU/ml ([2]; 1 μg/ml, day 7): 2.00 log CFU/ml
- log CFU/ml ([2]; 1 μg/ml, day 14): 2.00 log CFU/ml
- log CFU/ml ([2]; 1 μg/ml, day 21): 2.00 log CFU/ml
